One data set concerns Equus caballus. As to conditions: oral.
The next data set relates to Mus musculus. The settings on record: chronic; duration: 2 years; M/F; B6C3F1; body weight.
In the next data set the test system is Bovidae. The settings on record: oral; for LEL: diet.
The next data set has as its system Lolium perenne. As to conditions: acute; growth.
In another data set the test system is Anas platyrhynchos. The settings on record: short-term; duration: 8 days; oral; feed; body weight.
Another data set concerns Oncorhynchus mykiss. The settings on record: for LC50: acute, duration: 96 hours, mortality.
In another data set the test system is Meleagris sp. As to conditions: subchronic.
For the next data set, the system named is Macaca mulatta. The settings on record: chronic; duration: 1 years; oral; gavage; M/F; clinical signs.
The next data set concerns Homo sapiens. As to conditions: clinical; oral; M; clinical signs.
For the next data set, the system named is Rattus norvegicus. As to conditions: oral.
The next data set deals with Sus scrofa. As to conditions: chronic; duration: 14 weeks; oral; diet; M/F; Not specified; no effects.
A further data set concerns Felidae. As to conditions: acute; oral; diet; Cat; neurology.
In a further data set the test system is Danio rerio. The settings on record: acute; duration: 96 hours; mortality.
The test system of the next data set is Raphanus sp. The settings on record: acute; duration: 19 days; seedling emergence.
The test system of another data set is Bibionidae. The settings on record: chronic/long-term; other.
A further data set concerns Ictalurus punctatus. As to conditions: not reported; mortality.
For the next data set, the system named is Anatidae. The settings on record: subchronic; duration: 7 weeks; body weight.
For a further data set, the system named is Macromiidae. As to conditions: acute; duration: 72 hours; growth.
For a further data set, the system named is Pontoscolex corethrurus. As to conditions: reproductive; no effects.
Another data set relates to Typhlodromus pyri. The settings on record: not reported; mortality.
The test system of another data set is Aphidius rhopalosiphi. Put plainly: LR50; higher = less toxic. As to conditions: not reported; mortality.

Several values for one entry are separate records, joined by “and”; a condition that tells them apart may be missing. Equal entries are not always repeated. Where only a bound is given, the exact number is not on record here.

A word on the NOAEL: it is the highest tested level that showed no adverse finding. Turning to `CC[C@@]1([C@@H]2O[C@@H]([C@H]3O[C@@](O)(CO)[C@H](C)C[C@@H]3C)C[C@@H]2C)CC[C@H]([C@]2(C)CC[C@]3(C[C@H](O)[C@@H](C)[C@@H]([C@@H](C)[C@@H](OC)[C@H](C)C(=O)[O-])O3)O2)O1.[Na+]` [Monensin sodium], the NOEL in the data set with Canidae (repeat dose other, oral, Dog Other, clinical signs) was determined as 0.345 mg/kg-day; in the data set with Mus musculus, 1.2 mg/kg-day; in the data set on Anas platyrhynchos, 62 mg/kg; in the data set with Oryctolagus sp. (reproduction developmental, duration: 23 days, oral, gavage, F, body weight) it was 0.3 mg/kg-day. Besides, the LD50 in the data set with Equus caballus (acute, gavage, mortality) came to 1.38 mg/kg. In addition, the NOEC stood at 50 mg/kg in the data set with Tagia sp. (chronic/long-term, duration: 56 days, reproduction); 2 mg/kg with Lolium perenne; 50 µg/L with Oncorhynchus mykiss (chronic/long-term, duration: 50 days, development). Besides, the LEL in the data set on Gallus gallus (subchronic, duration: 35 days, oral, diet, M/F, no effects) came to 125 mg/kg-day; with Bovidae (chronic, duration: 160 days, M/F, no effects), 110 mg/kg-day; in the data set on Bovidae (short-term, duration: 28 days, M/F, no effects) it was 4.5 mg/kg-day; in the data set on Meleagris sp. (duration: 84 days, oral, feed, M/F, no effects), 100 mg/kg. Moreover, in the data set on Oncorhynchus mykiss, the LC50 was 1.88 µg/mL. In the data set on Oryctolagus sp. (reproduction developmental), the NOAEL is 0.3 mg/kg-day.
With `CC(CCc1ccc(O)cc1)NCC(O)c1ccc(O)cc1.Cl` (stereo not given) [Ractopamine hydrochloride], the NOAEL in the data set on Macaca mulatta is 0.125 mg/kg-day; in the data set with Canidae (acute, oral, M/F, Beagle, clinical signs), 0.002 mg/kg-day. This compound also had an NOEL with Homo sapiens of 0.067 mg/kg-day.
On to `CC[C@@H](C(=O)[C@@H](C)[C@@H](O)[C@H](C)[C@@H]1O[C@@H]([C@@H](CC)C(=O)[O-])CC[C@@H]1C)[C@H]1O[C@]2(C=C[C@@H](O)[C@]3(CC[C@@](C)([C@H]4CC[C@](O)(CC)[C@H](C)O4)O3)O2)[C@H](C)C[C@@H]1C.[Na+]` [Salinomycin sodium], for which the NOAEL in the data set on Canidae (acute, duration: 1 days, oral, gavage, Beagle, clinical signs) was 0.5 mg/kg-day; in the data set on Canidae (chronic, duration: 1 years, oral, diet, Dog Other, neurology) it was 0.5 mg/kg-day; in the data set on Canidae (chronic, duration: 12 months, Dog Other), 0.5 mg/kg-day; in the data set with Rattus norvegicus (subchronic, duration: 90 days, diet, M/F, Sprague-Dawley, organ weight), 0.6 mg/kg-day; in the data set with Sus scrofa, at least 5 mg/kg-day. The NOEL with Canidae (chronic, duration: 12 months, oral, capsule, M/F, Dog Other, neurology) worked out at 0.5 mg/kg-day; with Canidae (repeat dose other, oral, capsule, Dog Other, clinical signs), 0.625 mg/kg-day; in the data set with Oryctolagus sp. (reproduction developmental, duration: 24 days, oral, diet, F, reproduction), 0.5 mg/kg-day; in the data set on Oryctolagus sp. (reproduction developmental, reproduction), 0.5 mg/kg-day. Also, the LEL was at least 0.12 mg/kg with Equus caballus (other, feed, clinical signs); 140 mg/kg-day in the data set with Gallus gallus (subchronic, duration: 5 weeks, oral, diet, M, body weight); 60 mg/kg-day in the data set on Gallus gallus (subchronic, duration: 12 weeks, oral, diet, body weight); 140 mg/kg-day in the data set on Gallus gallus (subchronic, duration: 42 days, organ weight); 150 mg/kg-day with Gallus gallus (subchronic, duration: 56 days, growth); 90 mg/kg-day in the data set with Bovidae (subchronic, duration: 11 weeks, morphology). The LEL with Oryctolagus sp. (subchronic, duration: 6 weeks, oral, diet, food consumption) was at most 25 mg/kg-day; with Felidae, at least 16 mg/kg-day. For the same compound, the LOEL in the data set on Rattus norvegicus (chronic, duration: 2 years, diet, M/F, Wistar, clinical chemistry) turned out to be 1.5 mg/kg-day. Moreover, the LC50 in the data set with Oncorhynchus mykiss was 1.7 µg/mL and 1.14 µg/mL; in the data set on Danio rerio, 6.98 µg/mL; with Raphanus sp. it was 2.6 mg/kg. This compound yielded an NOEC with Bibionidae of 6.6 mg/kg.
As a reminder, the LOAEL is the lowest tested level that showed an adverse finding. As to `CC(=O)OC[C@]12C[C@H](OC(=O)CC(C)C)C(C)=C[C@H]1O[C@H]1[C@H](O)[C@H](OC(C)=O)[C@@]2(C)[C@]12CO2` [T-2 toxin], the lowest-observed-adverse-effect level (LOAEL) was determined as 0.12 mg/kg-day with Gallus gallus (short-term, duration: 24 days, oral, diet, F, reproduction); 0.04 mg/kg-day with Gallus gallus (subchronic, duration: 5 weeks, clinical signs); 0.3 mg/kg-day with Bovidae (subchronic, duration: 30 days, gavage, histopathology: neoplastic); 48 µg/kg-day in the data set on Meleagris sp. (duration: 5 weeks, clinical signs); 40 µg/kg-day in the data set on Anatidae. In addition, the NOAEL with Ictalurus punctatus amounted to 13 µg/kg-day; in the data set on Oryctolagus sp. (subchronic, oral, diet, F, clinical chemistry), 0.1 mg/kg-day.
As to `O=C([O-])CC[C@@H](C(=O)[O-])N(CC(=O)[O-])CC(=O)[O-].[Na+].[Na+].[Na+].[Na+]` [Tetrasodium glutamate diacetate], the NOEC in the data set with Macromiidae stood at 1 mg/L; in the data set with Pontoscolex corethrurus it was 248 mg/kg. The LEL in the data set on Gallus gallus (subchronic, duration: 35 days, oral, diet, M, Chicken, body weight) was 10000 mg/kg-day. The NOAEL with Oryctolagus sp. (reproduction developmental, duration: 21 days, oral, gavage, F, New Zealand, clinical signs) came out at 20 mg/kg-day.
Take `COP(=O)(OC)C(O)C(Cl)(Cl)Cl` (stereo not given) [Trichlorfon]: the LC50 with Tagia sp. (acute, duration: 14 days, mortality) was found to be 140 mg/kg. In addition, the LD50 in the data set with Rattus norvegicus (acute, F, mortality) was determined as 212 mg/kg-day. The NOAEL with Rattus norvegicus (chronic, M) was 13.2 mg/kg-day. This compound showed an LEL in the data set on Typhlodromus pyri of 1200 g/ha. The compound also displayed an LR50 in the data set on Aphidius rhopalosiphi of 0.519 g/ha.

Values taken from EPA's ToxValDB 9.5.
